{
  "source": "paper PMC12558477",
  "about": "“Flavin affinity for the reductase HpaC differentially sensitizes Neisseria gonorrhoeae during Type IV pilus-dependent killing” (PLOS Pathogens, 2025)",
  "biological_target": "T1, HpaC (Gc HpaC, FA1090 HpaC) (Neisseria gonorrhoeae, UniProt Q5FAG3)",
  "T1 construct": "gene NGO_0059; His6-tagged full-length HpaC from pET28a, expressed in E. coli BL21(DE3); 166 residues; co-purifies with FAD; oligomer not measured (modelled on TftC homodimer)",
  "T1 sequence (Q5FAG3 entry or part of it)": "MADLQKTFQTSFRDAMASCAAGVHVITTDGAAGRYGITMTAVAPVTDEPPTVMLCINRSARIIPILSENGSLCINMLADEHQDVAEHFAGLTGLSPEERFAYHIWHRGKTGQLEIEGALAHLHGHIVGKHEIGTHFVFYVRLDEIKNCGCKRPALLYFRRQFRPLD",
  "experiment": "FAD released from purified protein by heat denaturation, coupled-enzyme fluorescent probe kit",
  "format": "binding",
  "settings": "0.5 µM protein, with and without 95 °C for 5 min; room temperature; co-purified FAD",
  "data": [
    {"smiles": "Cc1cc2nc3c(=O)[nH]c(=O)nc-3n(C[C@H](O)[C@H](O)[C@H](O)COP(=O)(O)OP(=O)(O)OC[C@H]3O[C@@H](n4cnc5c(N)ncnc54)[C@H](O)[C@@H]3O)c2cc1C", "note": "[FAD]", "values": [
      {"measurement": "FAD released from purified protein by heat denaturation, coupled-enzyme fluoresc", "result": "We purified Gc HpaC and noticed an FAD signal in the absence of heat"}
    ]}
  ]
}
